Like-named read-outs stand apart in the source and are kept apart here.
Tests used:
[1] = molecular target: T1, safety screen panel of human pharmacological targets (Homo sapiens, UniProt P46098); assay: biochemical; conditions: read-out: percent inhibition: 5-HT3 (h) (antagonist radioligand)
T1 sequence (P46098 24-478): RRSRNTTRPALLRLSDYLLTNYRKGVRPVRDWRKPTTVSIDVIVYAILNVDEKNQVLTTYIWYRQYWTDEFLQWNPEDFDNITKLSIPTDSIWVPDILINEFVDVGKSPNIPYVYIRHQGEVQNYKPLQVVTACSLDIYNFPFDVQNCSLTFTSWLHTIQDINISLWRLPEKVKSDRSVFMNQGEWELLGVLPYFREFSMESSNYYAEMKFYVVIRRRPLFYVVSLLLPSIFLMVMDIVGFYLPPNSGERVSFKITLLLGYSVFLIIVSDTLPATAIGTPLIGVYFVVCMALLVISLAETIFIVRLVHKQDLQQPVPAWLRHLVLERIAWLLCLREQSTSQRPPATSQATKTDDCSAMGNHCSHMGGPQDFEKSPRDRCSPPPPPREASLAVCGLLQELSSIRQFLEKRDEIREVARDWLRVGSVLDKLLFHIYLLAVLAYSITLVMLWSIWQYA

[2] = molecular target: safety screen panel of human pharmacological targets (Homo sapiens, UniProt P07550); assay: biochemical; conditions: read-out: percent inhibition: beta 2 (h) (antagonist radioligand)
Sequence of safety screen panel of human pharmacological targets (Homo sapiens, UniProt P07550) (P07550 whole entry): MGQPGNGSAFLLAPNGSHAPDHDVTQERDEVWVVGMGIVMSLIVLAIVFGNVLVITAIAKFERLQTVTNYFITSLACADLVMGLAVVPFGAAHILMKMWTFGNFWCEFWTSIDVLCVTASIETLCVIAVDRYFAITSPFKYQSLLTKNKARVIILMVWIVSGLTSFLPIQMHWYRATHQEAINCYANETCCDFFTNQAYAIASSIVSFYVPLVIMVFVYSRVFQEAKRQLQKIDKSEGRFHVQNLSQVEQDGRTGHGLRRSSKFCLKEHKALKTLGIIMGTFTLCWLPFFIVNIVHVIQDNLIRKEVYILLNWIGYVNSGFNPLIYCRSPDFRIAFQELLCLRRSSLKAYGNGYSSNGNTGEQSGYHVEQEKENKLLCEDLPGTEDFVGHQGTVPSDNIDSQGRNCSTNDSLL

[3] = molecular target: safety screen panel of human pharmacological targets (Rattus norvegicus, UniProt P28564); assay: biochemical; conditions: read-out: percent inhibition: 5-HT1B (antagonist radioligand)
Sequence of safety screen panel of human pharmacological targets (Rattus norvegicus, UniProt P28564) (P28564 whole entry): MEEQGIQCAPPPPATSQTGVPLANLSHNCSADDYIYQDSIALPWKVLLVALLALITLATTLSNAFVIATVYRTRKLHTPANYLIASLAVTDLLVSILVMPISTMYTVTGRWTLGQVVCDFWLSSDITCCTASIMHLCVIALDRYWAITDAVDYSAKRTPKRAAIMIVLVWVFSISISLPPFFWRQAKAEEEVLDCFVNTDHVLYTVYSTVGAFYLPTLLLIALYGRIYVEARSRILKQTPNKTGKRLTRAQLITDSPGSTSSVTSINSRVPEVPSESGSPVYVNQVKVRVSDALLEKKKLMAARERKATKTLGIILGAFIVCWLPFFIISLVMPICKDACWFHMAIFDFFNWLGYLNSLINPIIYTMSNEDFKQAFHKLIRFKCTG

[4] = molecular target: safety screen panel of human pharmacological targets (Homo sapiens, UniProt P34972); assay: biochemical; conditions: read-out: percent inhibition: CB2 (h) (agonist radioligand)
Sequence of safety screen panel of human pharmacological targets (Homo sapiens, UniProt P34972) (P34972 whole entry): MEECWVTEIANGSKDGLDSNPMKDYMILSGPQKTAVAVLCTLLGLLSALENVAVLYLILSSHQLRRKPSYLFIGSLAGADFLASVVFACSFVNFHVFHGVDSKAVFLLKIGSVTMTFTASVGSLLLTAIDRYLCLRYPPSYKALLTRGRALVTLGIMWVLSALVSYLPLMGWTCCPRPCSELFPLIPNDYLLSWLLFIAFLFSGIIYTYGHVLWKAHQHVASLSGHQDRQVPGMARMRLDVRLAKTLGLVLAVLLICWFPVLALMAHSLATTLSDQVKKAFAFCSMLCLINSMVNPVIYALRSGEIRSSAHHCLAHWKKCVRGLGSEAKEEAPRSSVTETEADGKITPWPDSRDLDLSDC

[5] = molecular target: T2, safety screen panel of human pharmacological targets (Homo sapiens, UniProt P10275); assay: biochemical; conditions: read-out: percent inhibition: AR (h) (agonist radioligand)
T2 sequence (P10275 1-920): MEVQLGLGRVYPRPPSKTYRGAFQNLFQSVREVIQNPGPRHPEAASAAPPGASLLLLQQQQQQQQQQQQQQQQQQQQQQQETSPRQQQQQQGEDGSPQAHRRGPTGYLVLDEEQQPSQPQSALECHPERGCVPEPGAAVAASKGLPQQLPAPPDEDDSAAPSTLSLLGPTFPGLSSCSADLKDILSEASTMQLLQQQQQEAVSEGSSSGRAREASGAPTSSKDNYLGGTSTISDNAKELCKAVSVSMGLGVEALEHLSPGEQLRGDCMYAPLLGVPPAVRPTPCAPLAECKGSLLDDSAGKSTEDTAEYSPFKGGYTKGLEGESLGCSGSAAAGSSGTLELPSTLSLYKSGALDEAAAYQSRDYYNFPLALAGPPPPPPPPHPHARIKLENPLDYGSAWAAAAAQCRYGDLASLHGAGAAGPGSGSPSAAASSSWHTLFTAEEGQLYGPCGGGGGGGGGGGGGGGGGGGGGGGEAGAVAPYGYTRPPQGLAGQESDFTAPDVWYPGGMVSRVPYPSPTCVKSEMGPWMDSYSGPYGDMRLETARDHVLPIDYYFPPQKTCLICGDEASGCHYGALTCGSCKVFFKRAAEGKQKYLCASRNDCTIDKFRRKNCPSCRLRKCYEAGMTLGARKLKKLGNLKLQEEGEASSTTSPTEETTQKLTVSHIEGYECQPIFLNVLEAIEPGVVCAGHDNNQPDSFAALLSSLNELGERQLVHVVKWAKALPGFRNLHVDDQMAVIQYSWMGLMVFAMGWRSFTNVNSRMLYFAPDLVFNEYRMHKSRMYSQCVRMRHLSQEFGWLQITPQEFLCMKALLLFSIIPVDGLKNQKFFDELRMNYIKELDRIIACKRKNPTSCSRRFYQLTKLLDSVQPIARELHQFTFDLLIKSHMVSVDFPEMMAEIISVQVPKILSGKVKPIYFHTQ

[6] = molecular target: safety screen panel of human pharmacological targets (Homo sapiens, UniProt P08588); assay: biochemical; conditions: read-out: percent inhibition: beta 1 (h) {agonist radioligand)
Sequence of safety screen panel of human pharmacological targets (Homo sapiens, UniProt P08588) (P08588 whole entry): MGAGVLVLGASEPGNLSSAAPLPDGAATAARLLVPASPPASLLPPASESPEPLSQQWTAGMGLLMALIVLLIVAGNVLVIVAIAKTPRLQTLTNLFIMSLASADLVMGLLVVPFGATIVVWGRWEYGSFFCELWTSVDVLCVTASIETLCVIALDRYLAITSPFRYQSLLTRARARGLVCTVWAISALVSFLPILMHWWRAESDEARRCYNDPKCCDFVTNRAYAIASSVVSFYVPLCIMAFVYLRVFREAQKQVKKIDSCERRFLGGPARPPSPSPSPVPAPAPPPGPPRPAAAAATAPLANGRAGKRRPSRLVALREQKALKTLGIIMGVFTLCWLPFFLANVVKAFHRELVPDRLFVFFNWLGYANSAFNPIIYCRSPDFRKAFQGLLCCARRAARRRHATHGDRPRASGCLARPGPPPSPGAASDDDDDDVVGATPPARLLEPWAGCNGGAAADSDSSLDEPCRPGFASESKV

[7] = molecular target: T3, safety screen panel of human pharmacological targets (Homo sapiens, UniProt P25101); assay: biochemical; conditions: read-out: percent inhibition: ETA (h) (agonist radioligand)
T3 sequence (P25101 21-427): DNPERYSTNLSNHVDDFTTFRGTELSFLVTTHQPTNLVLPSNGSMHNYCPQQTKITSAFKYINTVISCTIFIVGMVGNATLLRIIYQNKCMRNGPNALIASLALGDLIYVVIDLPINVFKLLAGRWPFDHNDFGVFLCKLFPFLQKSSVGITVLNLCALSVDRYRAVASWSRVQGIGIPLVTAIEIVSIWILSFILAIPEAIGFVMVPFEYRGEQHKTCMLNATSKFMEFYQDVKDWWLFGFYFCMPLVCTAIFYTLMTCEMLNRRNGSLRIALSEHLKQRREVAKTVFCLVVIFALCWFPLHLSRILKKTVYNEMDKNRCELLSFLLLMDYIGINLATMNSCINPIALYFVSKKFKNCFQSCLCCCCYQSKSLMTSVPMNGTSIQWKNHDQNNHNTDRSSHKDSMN

[8] = molecular target: safety screen panel of human pharmacological targets (Homo sapiens, UniProt P35372); assay: biochemical; conditions: read-out: percent inhibition: mu (MOP) (h) (agonist radioligand)
Sequence of safety screen panel of human pharmacological targets (Homo sapiens, UniProt P35372) (P35372 whole entry): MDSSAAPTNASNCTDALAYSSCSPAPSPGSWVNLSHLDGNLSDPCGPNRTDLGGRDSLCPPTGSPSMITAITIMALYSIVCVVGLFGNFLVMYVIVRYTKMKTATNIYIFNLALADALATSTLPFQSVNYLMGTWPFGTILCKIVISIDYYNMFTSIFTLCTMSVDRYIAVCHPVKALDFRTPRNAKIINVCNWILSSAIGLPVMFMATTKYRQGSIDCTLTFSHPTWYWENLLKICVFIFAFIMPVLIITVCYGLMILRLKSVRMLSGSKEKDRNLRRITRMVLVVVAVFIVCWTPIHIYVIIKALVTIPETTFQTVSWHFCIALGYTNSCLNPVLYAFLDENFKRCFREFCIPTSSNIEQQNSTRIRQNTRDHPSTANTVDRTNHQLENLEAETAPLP

[9] = molecular target: safety screen panel of human pharmacological targets (Homo sapiens, UniProt P35367); assay: biochemical; conditions: read-out: percent inhibition: H1 (h) (antagonist radioligand)
Sequence of safety screen panel of human pharmacological targets (Homo sapiens, UniProt P35367) (P35367 whole entry): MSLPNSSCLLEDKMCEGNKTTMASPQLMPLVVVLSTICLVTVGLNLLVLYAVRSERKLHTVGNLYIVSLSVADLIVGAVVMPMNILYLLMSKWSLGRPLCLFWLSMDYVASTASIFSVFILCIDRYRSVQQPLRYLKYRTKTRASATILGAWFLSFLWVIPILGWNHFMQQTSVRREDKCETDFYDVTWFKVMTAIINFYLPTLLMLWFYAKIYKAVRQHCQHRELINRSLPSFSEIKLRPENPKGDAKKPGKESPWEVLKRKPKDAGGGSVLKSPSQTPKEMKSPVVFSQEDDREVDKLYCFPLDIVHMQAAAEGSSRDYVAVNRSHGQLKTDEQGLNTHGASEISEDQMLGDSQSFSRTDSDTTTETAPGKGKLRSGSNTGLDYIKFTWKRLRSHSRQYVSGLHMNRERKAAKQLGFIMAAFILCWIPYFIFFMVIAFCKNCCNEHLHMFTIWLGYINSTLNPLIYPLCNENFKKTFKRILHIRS

[10] = 1,000 mg/kg mixed glycosides by oral gavage; 6 hours; HPLC
[11] = molecular target: safety screen panel of human pharmacological targets (Homo sapiens, UniProt Q12809)
Sequence of safety screen panel of human pharmacological targets (Homo sapiens, UniProt Q12809) (Q12809 whole entry): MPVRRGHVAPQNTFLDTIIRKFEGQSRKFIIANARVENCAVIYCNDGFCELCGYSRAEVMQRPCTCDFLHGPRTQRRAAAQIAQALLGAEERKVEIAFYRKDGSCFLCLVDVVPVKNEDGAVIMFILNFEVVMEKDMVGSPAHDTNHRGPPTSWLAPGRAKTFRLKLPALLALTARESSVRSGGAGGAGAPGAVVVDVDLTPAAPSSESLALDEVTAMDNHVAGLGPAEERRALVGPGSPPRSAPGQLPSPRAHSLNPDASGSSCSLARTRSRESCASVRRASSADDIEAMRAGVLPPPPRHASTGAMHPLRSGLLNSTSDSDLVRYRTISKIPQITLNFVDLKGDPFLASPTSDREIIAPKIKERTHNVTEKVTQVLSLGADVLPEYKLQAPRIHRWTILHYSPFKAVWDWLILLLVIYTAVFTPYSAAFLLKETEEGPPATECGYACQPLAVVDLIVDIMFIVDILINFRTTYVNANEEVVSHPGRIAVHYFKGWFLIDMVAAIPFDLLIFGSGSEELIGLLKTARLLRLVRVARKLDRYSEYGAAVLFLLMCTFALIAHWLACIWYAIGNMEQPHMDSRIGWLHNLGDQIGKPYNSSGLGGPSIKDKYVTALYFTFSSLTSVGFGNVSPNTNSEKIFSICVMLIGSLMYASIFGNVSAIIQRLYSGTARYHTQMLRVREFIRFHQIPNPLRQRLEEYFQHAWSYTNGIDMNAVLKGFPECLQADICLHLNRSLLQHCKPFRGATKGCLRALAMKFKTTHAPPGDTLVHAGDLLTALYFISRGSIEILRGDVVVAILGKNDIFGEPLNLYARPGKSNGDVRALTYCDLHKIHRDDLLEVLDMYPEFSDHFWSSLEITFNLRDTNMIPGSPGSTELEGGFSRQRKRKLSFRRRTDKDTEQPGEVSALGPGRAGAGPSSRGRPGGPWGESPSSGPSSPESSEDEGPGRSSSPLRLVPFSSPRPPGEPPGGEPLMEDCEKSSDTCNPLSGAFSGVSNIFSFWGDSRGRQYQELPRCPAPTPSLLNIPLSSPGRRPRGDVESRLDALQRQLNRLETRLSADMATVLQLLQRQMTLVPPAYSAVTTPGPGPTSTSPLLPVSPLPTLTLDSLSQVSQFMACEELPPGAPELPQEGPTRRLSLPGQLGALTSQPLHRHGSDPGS

[12] = tested on: safety screen panel of human pharmacological targets
[13] = 10 micromolar test article, Adrenergic a1A receptor
[14] = 10 micromolar test article, Adrenergic α2A receptor
[15] = 10 micromolar test article, Benzodiazapine GABA channel
[16] = 10 micromolar test article, Calcium Channel L-Type, Dihydropyridine
[17] = 10 micromolar test article, Dopamine D2S receptor
[18] = 10 micromolar test article, N-Methyl-D-aspartate
[19] = 10 micromolar test article, Phosphodiesterase 4D2
[20] = 10 micromolar test article, Sodium channel
[21] = 10 micromolar test article, Voltage-gated potassium channel
[22] = 10 micromolar test article, results greater than 50% deemed significant

Work on CCCCCc1cc(O)c2c(c1)OC(C)(C)[C@@H]1CCC(C)=C[C@@H]21 [VB301, Δ9-Terahydrocannabinol, reference compound] yielded an inhibition at 10 µM [1] of -21%, an inhibition at 10 µM [2] of -12% and an inhibition at 10 µM [3] of 26%. The inhibition at 10 µM [4] was 97%, the inhibition at 10 µM [5] was 13% and the inhibition at 10 µM [6] was 1%. The inhibition at 10 µM [7] was 14%, the inhibition at 10 µM [8] was 89% and the inhibition at 10 µM [9] was 8%. The “change of share of total THC-glycosides in large intestine extracts versus small intestine extracts” value [10] was “appreciable amounts”, the “change of share of total THC-glycosides in small intestine extracts versus administered mixture” value [10] was “below the limit of detection” and the “percent inhibition: Potassium Channel hERG (human)- [3H] Dofetilide” value (shortened to “percent inhibition … [3H] Dofetilide”) ([11]; human) was 67%. The “percent inhibition: BZD (central) (agonist radioligand)” value (“percent inhibition: BZD (central)” below) [12] was 2%, the “percent inhibition: Ca2+ channel (L. dihydropyridine site) (antagonist radioligand)” value (“percent inhibition: Ca2+ channel” for short) [12] was 59% and the “percent inhibition: D2S (h) (agonist radioligand)” value (shortened to “percent inhibition: D2S (h)”) [12] was 13%. The “percent inhibition: KV channel (antagonist radioligand)” value (“percent inhibition: KV channel” for short) [12] was 5%, the “percent inhibition: NMDA (antagonist radioligand)” value (“percent inhibition: NMDA” for short) [12] was 10% and the “percent inhibition: Na+ channel (site 2) (antagonist radioligand)” value (shortened to “percent inhibition: Na+ channel”) [12] was 65%. The “percent inhibition: PDE4D2 (h)” value [12] was -11%, the “percent inhibition: alpha 1A(h) (antagonist radioligand)” value (“percent inhibition: alpha 1A(h)” for short) [12] was 6% and the “percent inhibition: alpha 2A (h) (antagonist radioligand)” value (from here on “percent inhibition: alpha 2A (h)”) [12] was 94%. The “number of the 44 pharmacological targets whose binding is significantly inhibited or disrupted” value ([12]; human) was 16.

CCCCCc1cc(O[C@@H]2O[C@H](CO)[C@@H](O)[C@H](O)[C@H]2O)c2c(c1)OC(C)(C)[C@@H]1CCC(C)=C[C@@H]21 [VB302, Δ9THC-1-O-glucopyranoside] showed an inhibition at 10 µM [1] of -4%, an inhibition at 10 µM [2] of 2% and an inhibition at 10 µM [3] of -1%. It also gave an inhibition at 10 µM [4] of 22%, an inhibition at 10 µM [5] of 4% and an inhibition at 10 µM [6] of 7%. The inhibition at 10 µM [7] was -21%, the inhibition at 10 µM [8] was -5% and the inhibition at 10 µM [9] was 10%. For the same compound, the “change of share of total THC-glycosides in large intestine extracts versus small intestine extracts” value [10] was “further increases”, the “change of share of total THC-glycosides in small intestine extracts versus administered mixture” value [10] was “increases” and the “percent inhibition … [3H] Dofetilide” value ([11]; 10 micromolar test article) was -23%. For the same compound, the “percent inhibition: alpha 1A(h)” value [12, 13] was -5%, the “percent inhibition: alpha 2A (h)” value [12, 14] was 0% and the “percent inhibition: BZD (central)” value [12, 15] was -10%. For the same compound, the “percent inhibition: Ca2+ channel” value [12, 16] was 22%, the “percent inhibition: D2S (h)” value [12, 17] was 22% and the “percent inhibition: NMDA” value [12, 18] was 8%. For the same compound, the “percent inhibition: PDE4D2 (h)” value [12, 19] was -8%, the “percent inhibition: Na+ channel” value [12, 20] was 13% and the “percent inhibition: KV channel” value [12, 21] was 1%. The “number of the 44 pharmacological targets whose binding is significantly inhibited or disrupted” value [12, 22] was “did not significantly alter any of the targets”.

With CCCCCc1cc(O[C@@H]2O[C@H](CO[C@@H]3O[C@H](CO)[C@@H](O)[C@H](O)[C@H]3O)[C@@H](O[C@@H]3O[C@H](CO)[C@@H](O)[C@H](O)[C@H]3O)[C@H](O)[C@H]2O)c2c(c1)OC(C)(C)[C@@H]1CCC(C)=C[C@@H]21 [VB311] the inhibition at 10 µM [1] was -13%, the inhibition at 10 µM [2] was -1% and the inhibition at 10 µM [3] was -7%. The inhibition at 10 µM [4] was 17%, the inhibition at 10 µM [5] was 10% and the inhibition at 10 µM [6] was 0%. For the same compound, the inhibition at 10 µM [7] was 9%, the inhibition at 10 µM [8] was 5% and the inhibition at 10 µM [9] was -7%. The “change of share of total THC-glycosides in large intestine extracts versus small intestine extracts” value [10] was “further decreases”, the “change of share of total THC-glycosides in small intestine extracts versus administered mixture” value [10] was “sharp decrease” and the “percent inhibition … [3H] Dofetilide” value ([11]; 10 micromolar test article) was -10%. For the same compound, the “percent inhibition: alpha 1A(h)” value [12, 13] was -3%, the “percent inhibition: alpha 2A (h)” value [12, 14] was 8% and the “percent inhibition: BZD (central)” value [12, 15] was 16%. For the same compound, the “percent inhibition: Ca2+ channel” value [12, 16] was -7%, the “percent inhibition: D2S (h)” value [12, 17] was -6% and the “percent inhibition: NMDA” value [12, 18] was 3%. The “percent inhibition: PDE4D2 (h)” value [12, 19] was -6%, the “percent inhibition: Na+ channel” value [12, 20] was 5% and the “percent inhibition: KV channel” value [12, 21] was -5%. For the same compound, the “number of the 44 pharmacological targets whose binding is significantly inhibited or disrupted” value [12, 22] was “did not significantly alter any of the targets”.
